Where “and” joins values, the source holds several entries; their conditions need not be identical. Equal values may be shown once. Calls of active or inactive are those of the source. How the calls were made is not given here.

The target in the assay is glucose-6-phosphate dehydrogenase-6-phosphogluconolactonase (Plasmodium falciparum 3D7). As to the kind of experiment: inhibition of P. falciparum G6PD activity – biochemical, kinetic NADPH detection, orthogonal assay, dose response (AID 540269). The conditions noted are these: purified PfG6PD-6PGL.
On to `O=C(Nc1ccccn1)c1sc2cc([N+](=O)[O-])ccc2c1Cl`, for which the IC50 is > 80 µM (inactive).
Consider `O=C(CNc1ccc2c(c1)OCO2)N/N=C\c1cn(Cc2ccccc2)c2ccccc12`, for which the IC50 was > 80 µM (inactive).
Take `CCN1CCCC1CNC(=O)c1ccc2c(c1)NC(=O)/C(=C\c1ccccc1F)S2` (stereo not given): the IC50 is 8.64 µM.
In the case of `Cc1cc(N=NC(=O)c2ccccc2O)c2ccccc2c1O`, the IC50 was > 80 µM (inactive).
As to `N#Cc1c(C#N)c(SSc2c(C#N)c(C#N)c(N)n2-c2ccccc2)n(-c2ccccc2)c1N`, the IC50 was > 80 µM (inactive).
Turning to `CC1COCC(C)N1C1=C(Cl)C(=O)c2ccccc2C1=O` (stereo not given), the IC50 is 42.4 µM.
`Oc1cc(CNCc2ccccc2)c(O)cc1CNCc1ccccc1`: the IC50 was 53.7 µM.
As for `CC(=O)Nc1ccc2c(c1)Cc1cc(N3C(=O)C=CC3=O)ccc1-2`, the IC50 is 27.2 µM.
Take `O=[N+]([O-])c1c(NCCO)cc(Sc2nc3ccccc3s2)c2nonc12`: the IC50 was > 80 µM (inactive).
`Cn1cc(S(=O)(=O)CC(=O)N2CCc3ccccc32)c2ccccc21`: the IC50 is > 80 µM (inactive).
With `Cc1cc(O)c(-c2cc(O)c(C)cc2O)cc1O` the figure was 44.5 µM; with `CN1CC[C@@]2(C)c3cc(O)ccc3N(C)[C@@H]12`, 46.7 µM; with `Cc1ccc(NC(=O)Cn2sc3ccccc3c2=O)cc1`, 14.4 µM.
For `CCCCOc1ccc(Cc2n[nH]c(=S)n2N)cc1`, the IC50 is > 80 µM (inactive).
Turning to `CC(C)(C)NC(=O)COc1ccc(CNc2ccc3[nH]c(=O)[nH]c3c2)cc1`, the IC50 was 10.4 µM.
As for `CCC(=O)OCOc1ccc(/C=C2/CCC(CN(C)C)C2=O)cc1` (stereo not given), the IC50 was 36.4 µM.
Turning to `Cc1ccc(S(=O)(=O)SC/C=C/CSS(=O)(=O)c2ccc(C)cc2)cc1`, the IC50 is 73 µM.
On to `Cc1c(/C=C/C(=O)c2ccc(Cl)s2)cnn1C`, for which the IC50 was 41.1 µM.
In the case of `CCCN1CCc2cc(O)cc3c2[C@H]1Cc1ccc(O)c(O)c1-3` it was > 80 µM (inactive).
Turning to `[O-][N+](=Cc1ccccc1)c1ccc(Cl)cc1`, the IC50 is > 80 µM (inactive).
As to `Cc1cc(C)c2c(=O)n(CC(=O)Nc3cccc(Cl)c3C)sc2n1`, the IC50 was 49.6 µM.
For `CCOC(=O)Cc1csc(-n2sc3ccccc3c2=O)n1`, the IC50 is 31.3 µM.
With `CCOc1ccc(NC(=O)Cn2sc3nc(C)cc(C)c3c2=O)cc1` the figure was 37.5 µM; with `Cc1ccc(/C=C/C(=O)N2CCN(S(=O)(=O)c3ccc(C)c(C)c3)CC2)o1`, > 80 µM (inactive).
Turning to `COc1c(O)c(O)c2oc(-c3ccccc3)cc(=O)c2c1OC`, the IC50 is 66.9 µM.
`[O-]/[N+](=C\c1ccccc1)c1ccc(Br)cc1`: the IC50 was > 80 µM (inactive).
For the compound `CCN1CCCC1CNC(=O)c1ccc2c(c1)NC(=O)/C(=C\c1ccccc1Cl)S2` (stereo not given), the IC50 was 8.01 µM.
With `O=C(Cn1sc2ccccc2c1=O)Nc1ccc(Cl)cc1` the figure was 16 µM.
`COc1cc(NCc2ccccc2O)c2ncccc2c1`: the IC50 is 35 µM.
Turning to `Cc1ccc(S(=O)(=O)Nc2nc(C)c(C(=O)N/N=C/c3ccccc3)s2)cc1`, the IC50 is 31 µM.
In the case of `CC1(OC(=O)C2CCCC2)C(=O)C=C2C=C(c3ccsc3)N(Cc3ccc4c(c3)OCO4)C=C2C1=O` (stereo not given), the IC50 was > 80 µM (inactive).
Regarding `Cc1ccc(Nc2cc(C)c(O)c(C)c2)cc1`, the IC50 is > 80 µM (inactive).
Consider `Cc1[nH]c2ccccc2c1/C=N/Nc1nncn1N`, for which the IC50 is > 80 µM (inactive).
As for `O=c1c2ccccc2sn1-c1cccc(Cl)c1`, the IC50 is 14.2 µM.
As to `CCc1ccccc1N1CSC2=C(C#N)C(c3ccccc3F)CC(=O)N2C1` (stereo not given), the IC50 was > 80 µM (inactive).
Turning to `O=C1CCN(c2ccccc2)N1`, the IC50 is > 80 µM (inactive).
Take `CN(C)c1ccc2nc3ccc(=O)cc-3sc2c1`: the IC50 is > 80 µM (inactive).
Consider `O=C(CCC(=O)Nc1ccccc1Cl)N/N=C/c1ccccc1`, for which the IC50 was > 80 µM (inactive).
As for `CN=c1nc(-c2ccccc2)n(-c2ccccc2)s1`, the IC50 was 20.6 µM.
For the compound `COc1cc(NCc2ccccc2)c2ncn(Cc3ccccc3)c2c1`, the IC50 is > 80 µM (inactive).
On to `CC1(C)Cc2c(sc3nc4n(-c5ccccc5)c(=O)c(CCC(=O)O)nn4c(=O)c23)CO1`, for which the IC50 is 11.7 µM.
As for `COC(=O)c1ccccc1NC1=C/C(=N\S(=O)(=O)c2cccs2)c2ccccc2C1=O`, the IC50 is 35.7 µM and 60.4 µM.
Take `Cc1ccc(S(=O)(=O)NNc2ccccc2)cc1`: the IC50 was 54.1 µM.
Consider `COc1cc(/C=C/C(=O)c2ccc([N+](=O)[O-])o2)ccc1O`, for which the IC50 was > 80 µM (inactive).
Take `Cc1cccc(-n2c(=S)[nH]c3sc4c(c3c2=O)CCc2ccccc2-4)c1`: the IC50 was 40.9 µM.
On to `CCc1cc(-c2n[nH]c(C)c2-c2nc3ccccc3n2C)c(O)cc1O`, for which the IC50 was 9.3 µM.
As for `COc1cc(-c2cc(OC)c(O)c(OC)c2)cc(OC)c1O`, the IC50 was > 80 µM (inactive).
Take `O=C(Nc1nnc(S(=O)(=O)N2CCOCC2)s1)c1cccc(Br)c1`: the IC50 was 60.2 µM.
Take `CC(=O)OCC1(C)CN(c2ccccc2)NC1=O` (stereo not given): the IC50 was > 80 µM (inactive).
As for `O=c1c2ccc(F)cc2sn1-c1ccccc1`, the IC50 is 15.4 µM.
`COc1ccc(NC(C)C(=O)N/N=C/c2cc(Br)ccc2OC)cc1` (stereo not given): the IC50 is > 80 µM (inactive).
As to `Cc1ccc(S(=O)(=O)SCCCSS(=O)(=O)c2ccc(C)cc2)cc1`, the IC50 is 35.6 µM.
For `O=c1[nH]c2ccccc2n2c(-c3ccccc3)nnc12`, the IC50 is 13.2 µM.
In the case of `CCC(CO)[n+]1c(C)cc(/C=C2\Sc3ccccc3N2Cc2ccccc2)cc1C` (stereo not given) it was 24.3 µM; in that of `NCCNc1ccc(C(=O)N2c3ccccc3Sc3ccccc32)cc1[N+](=O)[O-]`, 23.5 µM; in that of `CC1N(C)c2cccc3cccc(c23)N1C`, 19.7 µM.
Consider `Cc1ccc(-c2nc(N3CCOCC3)s[n+]2-c2ccccc2)cc1`, for which the IC50 is > 80 µM (inactive).
On to `CC1(C)CC2(CC(c3ccccc3F)c3ccc(O)c(O)c3O2)NC(=S)N1` (stereo not given), for which the IC50 is 45.8 µM.
Take `Cc1ccc(-n2sc3cc(F)ccc3c2=O)c(C)c1`: the IC50 is 12.5 µM.
Turning to `O=C(COc1ccccc1F)OCC(=O)c1ccc([N+](=O)[O-])cc1`, the IC50 was > 80 µM (inactive).
For the compound `[O-]/[N+](=C/c1cccnc1)c1ccc(Br)cc1`, the IC50 was 77.1 µM.
Take `COc1cccc(-c2c(C(=O)N/N=C/c3ccc(C)s3)nnn2-c2nonc2N)c1`: the half-inhibitory concentration (IC50) is 53.5 µM.
Turning to `Cc1nc(COC(=O)c2cc(O)c3ccccc3c2O)cs1`, the IC50 was > 80 µM (inactive).
Regarding `O=C(O)c1ccccc1NS(=O)(=O)c1cccc(-n2sc3ccccc3c2=O)c1`, the IC50 was 15.3 µM.
In the case of `Nc1ccc2c3c(cccc13)-c1ccccc1-2` it was 41.3 µM; in that of `COc1cc(NCc2ccccc2)c2ncn(C(C)C)c2c1`, > 80 µM (inactive); in that of `O=C1C(c2cc(=O)c3ccccc3[nH]2)=C(O)c2ccccc21`, > 80 µM (inactive).
`O=C(Cc1ccccc1)NCC(=O)OCC(=O)c1ccc([N+](=O)[O-])cc1`: the IC50 is 57.9 µM.
With `ClC(Cl)(c1nnnn1-c1ccccc1)c1nnnn1-c1ccccc1`, the IC50 is 61.2 µM.
For `CN(C)c1ccc(C=c2c3cc([N+](=O)[O-])ccc3n3c2cc(-c2ccccc2)[n+]3C)cc1`, the IC50 was 35.1 µM.
With `COC1(OC)C=CC(=O)C=C1NC(=O)c1ccccc1OC(C)=O`, the IC50 was > 80 µM (inactive).
Consider `Cc1ccc(C)c(-n2sc3ccc(F)cc3c2=O)c1`, for which the IC50 was 11.4 µM.
On to `Cc1ccc(-c2c(C(=O)N/N=C/c3ccc(C)o3)nnn2-c2nonc2N)cc1`, for which the IC50 was 51.3 µM.
Turning to `CC(=O)Nc1cc(OC(C)=O)c2nonc2c1OC(C)=O`, the IC50 was > 80 µM (inactive).
As for `Cc1cc(C)nc(NC(N)=NCCc2ccccc2)n1`, the IC50 was > 80 µM (inactive).
As to `C=CCOc1ccc(CNc2ccc3[nH]c(=O)[nH]c3c2)cc1OC`, the IC50 is > 80 µM (inactive).
With `O=C(Nc1ccc(N2CCN(C(=O)c3ccco3)CC2)c(Cl)c1)c1cc2ccccc2o1` the figure was 53.8 µM; with `N#CC(C#N)=C1C=CC=CN1/C(=C\c1ccccc1Cl)C(=O)c1ccccc1`, > 80 µM (inactive); with `O=C(OCC(=O)c1ccc([N+](=O)[O-])cc1)/C(=C\c1ccc(Cl)cc1)NC(=O)c1ccccc1`, > 80 µM (inactive).
In the case of `Cc1nc2ccccn2c1-c1ccnn1S(=O)(=O)c1ccc(F)cc1`, the IC50 is > 80 µM (inactive).
For `O=C(O)CSc1cc(NS(=O)(=O)c2cccc([N+](=O)[O-])c2)c2ccccc2c1O`, the IC50 is > 80 µM (inactive).
Take `Cc1ccc(C(=O)Nc2nnc(S(=O)(=O)N3CCC(C)CC3)s2)cc1`: the IC50 is 24.1 µM.
With `O=C(O)C(Cc1ccccc1)N1C(=O)C=CC1=O` (stereo not given) the figure was 36.2 µM.
Regarding `O=C(COC(=O)c1cnccn1)c1ccc([N+](=O)[O-])cc1`, the IC50 was > 80 µM (inactive).
With `COc1cc(CNc2ccc(N3CCCC3)cc2)ccc1OCc1ccccc1F` the figure was > 80 µM (inactive); with `COC1=C(N)C(=O)c2nc(C)ccc2C1=O`, > 80 µM (inactive).
As to `[O-]/[N+](=C\c1ccncc1)c1ccccc1`, the IC50 was > 80 µM (inactive).
For the compound `Cc1ccc2nc(SCC(=O)NC3CCCc4ccccc43)[nH]c2c1` (stereo not given), the IC50 is > 80 µM (inactive).
With `Cc1ccc(NC(=O)c2cc(N3C(=O)C=CC3=O)ccc2N2CCOCC2)cc1` the figure was > 80 µM (inactive); with `C=CCN=c1scc(-c2ccco2)n1/N=C/c1ccc(O)c(O)c1O`, 58.3 µM.
Regarding `COc1ccc(C(=O)ON=C2C=C(C)C(=O)C(C)=C2)cc1`, the IC50 is > 80 µM (inactive).
Consider `S=C(NN=Cc1ccccn1)N(Cc1ccccn1)Cc1ccccn1`, for which the IC50 is 29.5 µM.
With `C=CCc1ccccc1OCC(=O)N/N=C/c1ccccc1OCC`, the IC50 was > 80 µM (inactive).
In the case of `O=C1CCC[C@@H]2[C@@H](Cc3ccccc3)[C@H](N3CCN(c4ccccc4)CC3)C[C@@H]3CCN1[C@@H]32`, the IC50 was > 80 µM (inactive).
For the compound `CCC1(C)CC(C(N)=S)CCO1` (stereo not given), the IC50 is > 80 µM (inactive).

Broadly, the IC50 is the point on the concentration scale where inhibition reaches its midpoint.

(Values after PubChem BioAssay AID540269 (Sanford-Burnham Center for Chemical Genomics, 2011).)
